Assay [1] has as its system human hair follicle papilla cells (HFDPC). Briefly: In vitro proliferation of hair follicle dermal papilla cells (BrdU incorporation). The format is cell-based. Here is the method: In order to test the effects of the cell-free supernatants, as well as of the peptides of the invention, a proliferation assay was conducted onto human hair follicle papilla cells (CELL APPLICATIONS, INC; Normal human hair follicles from temporal scalp. Single donor: Ref. 602-05a. Lot. 2092.).
The culture media was a Papilla Cell Basal Medium supplemented with the Growth Supplements kit (Relative composition: Fetal bovine serum, growth factors and antibiotics. Application: 6% v/v).
HFDPC proliferation was assessed determining the proliferation index (%). Cell DNA replication was quantified by means of incorporated bromodeoxiuridine (BrdU) into DNA of treated cells. BrdU assay allows measuring cell proliferation based on cell capability of incorporating BrdU during S-phase of the cell cycle. Cells being divided incorporated BrdU that is further detected by means of antibodies and immunocytochemistry detection.
Cells were seeded at confluence in a 96-well plate. After stabilization and synchronization of cell cultures the tested products were added (at the final concentration indicated in Table 1 of Examples. After that, BrdU was added to cultures and HFDPC were incubated at 37° C. until complete BrdU incorporation. BrdU amounts were proportional to the number of cell divisions and thus to the growth of the treated culture.
Data are depicted in FIG. 1, FIG. 2 and FIG. 3, wherein it is shown the proliferation index (%) of HFDPC, calculated as the percentage of growing in relation to the basal control (non-treated HFDPC) which is accorded a 100% value of proliferation index.
(In general: Uptake of a labelled nucleoside into DNA is a usual measure of proliferation.)

The next assay has as its system miRNA-31. Briefly: miRNA-31 expression in secretomes of treated HFDPC. As to conditions: in relation to the controls, FIG. 5(A),(C). The format is cell-based, human. An excerpt: FIG. 5, related with Assay 1, is a graph showing the expression levels of miRNA-22 (FIG. 5(B)) and miRNA-31 (FIGS. 5(A) and (C)) in secretomas from HFDPC treated with either the peptide of SEQ ID NO: 6 or the cell-free supernatants of Curcuma longa.
From these secretomes of HFDPC, also the levels of the microRNAs miRNA-31 and miRNA-22 were detected (FIG. 5).

Assay [2] concerns human dermal fibroblasts (HDF). Briefly: In vitro proliferation of human dermal fibroblasts (BrdU incorporation). Type of assay: cell-based. As to conditions: basal control = 100%. Here is the method: In order to further test the effects of the peptides of the invention in an additional setting, a proliferation assay was conducted onto human dermal fibroblasts (HDF).
Normal Human Dermal Fibroblasts (HDF) were obtained from foreskin samples, surpluses from surgery of young donors (0-3 years old) and stablished by using the standard method of explants growth and enzymic dissociation of proliferating cells. Cells were propagated and grown in Growth Medium (GM): Dulbecco's 1 g/L glucose medium, supplemented with 10% foetal bovine serum (FBS, PAA); 2 mM L-glutamine (Lonza); and antibiotics (100 μg/ml Penicillin and 100 U/ml of Streptomycin, Lonza). For routine subcultivation and propagation of the primary culture, cells were washed twice with PBS ([…] buffered saline, pH 7.4), harvested with trypsin—EDTA (Gibco) and counted in Neubauer chamber before its seeding in a new cell culture flask (Falcon, 75 cm2).
Test products were prepared at the defined final concentrations by its dilution in Maintenance Medium (Dulbecco's 1 g/L glucose medium, supplemented with 1% foetal bovine serum (FBS, PAA); 2 mM L-glutamine (Lonza); and antibiotics (100 μg/ml Penicillin and 100 U/ml of Streptomycin, Lonza), just before each application.
HFD proliferation was assessed determining the proliferation index (%). Cell DNA replication was quantified by means of incorporated bromodeoxiuridine (BrdU) into DNA of treated cells. […] Cells being divided incorporated BrdU that is further detected by means of antibodies and immunocytochemistry detection. […]
Data are depicted in FIG. 6 and FIG. 7, wherein it is shown the proliferation index (%) of HDF, calculated as the percentage of growing in relation to the basal control (non-treated HDF) which is accorded a 100% value of proliferation index. […]
Data are depicted in FIG. 16, wherein it is shown the proliferation index (%) of HDF, calculated as the percentage of growing in relation to the basal control (non-treated HDF) which is accorded a 100% value of proliferation index.

Assay [3] has as its system human dermal fibroblasts (HDF). Briefly: Wound healing (scratch) assay on human dermal fibroblasts. The format is cell-based. As to conditions: FIG. 17; 5 μg/ml and 0.05 μg/ml; 5 days of treatment; triplicate mean; vs 0.1% FBS basal, 10% FBS and TGF-β1 positive controls. As to the method:
In order to test the effect of the sulfaction state of the peptides on their activity, it is herewith provided as reference example a wound healing assay conducted onto human dermal fibroblasts (HDF).
Human dermal fibroblasts were seeded in a 24-well plate and were grown to confluence. A 2 mm width scratch was done on the culture monolayer. Then the test products in culture medium were added and the cicatrisation process was followed by means of phase contrast microscopy. With this aim, photographs were taken at initial of the test (T=0 h) before the scratching and after the treatment (at 12 h and at 72 h). Cicatrisation process was evaluated by quantifying wound area reduction at each time.
Data at the end of the test (5 days of treatment) are depicted in FIG. 17, wherein the wound healing potential is depicted as the Healed Area (in μm^2) for assayed peptide.
The results derive from a triplicate test. Values of cicatrised area (or % of cicatrisation) are the mean values.

In the case of “CH3—C(O)—YIYT-NH2 (Ac-YIYT-NH2) [SEQ ID NO: 6, in vivo: dissolved 0.025% w/w in PBS buffered fortifying solution 2×]”, the “proliferation index of HFDPC” value in assay [1] (FIG. 1, relative to basal control (non-treated HFDPC) = 100%, concentrations C1/C2 of Table 1) is “showed the best results”; in assay [1] (FIGS. 2 and 3, peptides with or without end-terminal modifications at 5.86, 2.93, 1.46 μg/ml, basal control = 100%), “can promote cell proliferation”. In addition, in the assay on miRNA-31, the “expression index of miRNA-31” value is recorded as “increase of the expression index of miRNA-31”. For the same substance, the “proliferation index of HDF” value in assay [2] (Assay 5, FIG. 16, peptide, nutritive solution, or both in combination) is recorded as “can promote cell proliferation”; in assay [2] (FIGS. 6 and 7, 4Aa at 25, 12.5, 1.25 μg/ml, 5Aa at 1.25, 0.63, 0.25 μg/ml), “can promote cell proliferation of HDF”. For the same substance, the “wound healing potential, Healed Area” value in assay [3] is given as “independent of its sulfaction state”.
